Assay results published in ChEMBL document CHEMBL6127095, “Isoxazole compounds: Unveiling the synthetic strategy, in-silico SAR & toxicity studies and future perspective as PARP inhibitor in cancer therapy” (Eur J Med Chem, 2024).
Values after ≈ are worked out from the molar mass of the structure shown. Counter-ions that a name gives are not always drawn. Values belong to the compound of their own block, whether it stands above or below them.

How the values were obtained:
HepG2 = assay: Antiproliferative activity against human HepG2 cells assessed as reduction in cell viability after 24 hrs by MTT assay; format: functional, cell-based; settings: HepG2, 24 h
PC-3 [1] = assay: Antiproliferative activity against human PC-3 cells assessed as reduction in cell viability incubated for 24 hrs by MTT assay; format: functional, cell-based; settings: PC-3, 24 h
MCF7 [2] = assay: Antitumor activity against human MCF7 cells xenografted in BALB/c nude mouse assessed as tumor growth inhibition at 30 mg/kg, iv administered for 15 days; format: functional; set-up: scale not given: the % may be the effect or the level left; settings: time 15 day
[3] = Toxicity in mouse assessed as lethal dose; settings: in vivo
[4] = target: Poly [ADP-ribose] polymerase 1 (Homo sapiens, UniProt P09874); assay: Inhibition of PARP-1 (unknown origin)
Sequence of Poly [ADP-ribose] polymerase 1 (P09874 whole entry): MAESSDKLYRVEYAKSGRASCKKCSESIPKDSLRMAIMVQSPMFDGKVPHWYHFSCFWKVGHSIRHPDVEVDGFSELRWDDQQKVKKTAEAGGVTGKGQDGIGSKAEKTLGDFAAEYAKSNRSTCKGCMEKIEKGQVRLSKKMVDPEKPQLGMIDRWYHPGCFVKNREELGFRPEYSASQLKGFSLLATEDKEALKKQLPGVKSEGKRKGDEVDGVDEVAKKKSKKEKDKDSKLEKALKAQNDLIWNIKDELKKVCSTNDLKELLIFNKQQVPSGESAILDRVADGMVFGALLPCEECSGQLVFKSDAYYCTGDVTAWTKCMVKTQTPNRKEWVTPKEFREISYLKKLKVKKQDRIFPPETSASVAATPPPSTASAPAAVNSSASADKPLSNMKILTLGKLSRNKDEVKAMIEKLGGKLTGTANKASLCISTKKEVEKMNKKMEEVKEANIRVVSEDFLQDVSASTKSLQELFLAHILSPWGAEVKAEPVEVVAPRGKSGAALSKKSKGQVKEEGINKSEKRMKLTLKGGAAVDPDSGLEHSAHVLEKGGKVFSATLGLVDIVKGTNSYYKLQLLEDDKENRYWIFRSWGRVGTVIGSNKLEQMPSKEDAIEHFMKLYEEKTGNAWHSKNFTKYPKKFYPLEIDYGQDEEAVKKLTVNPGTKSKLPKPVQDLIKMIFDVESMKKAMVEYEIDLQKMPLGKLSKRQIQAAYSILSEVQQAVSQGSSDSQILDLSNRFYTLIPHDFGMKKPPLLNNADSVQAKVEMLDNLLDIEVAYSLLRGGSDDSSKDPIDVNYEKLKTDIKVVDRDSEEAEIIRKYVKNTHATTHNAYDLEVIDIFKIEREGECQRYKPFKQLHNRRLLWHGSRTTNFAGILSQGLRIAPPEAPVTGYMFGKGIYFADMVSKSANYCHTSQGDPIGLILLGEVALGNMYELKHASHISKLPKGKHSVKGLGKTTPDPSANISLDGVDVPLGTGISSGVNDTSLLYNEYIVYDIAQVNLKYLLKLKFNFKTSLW

MCF7 [5] = assay: Anticancer activity against human MCF7 cells assessed as inhibition of cell growth incubated for 24 hrs by MTT assay; format: functional, cell-based; settings: MCF7, 24 h
PC-3 [6] = assay: Anticancer activity against human PC-3 cells assessed as inhibition of cell growth incubated for 24 hrs by MTT assay; format: functional, cell-based; settings: PC-3, 24 h
4T1 = assay: Cytotoxicity against mouse 4T1 cells assessed as inhibition of cell proliferation incubated for 72 hrs by MTT assay; format: functional, cell-based; settings: 4T1, 72 h
[7] = target: Epidermal growth factor receptor (Homo sapiens, UniProt P00533); assay: Inhibition of EGFR (unknown origin) using TK as substrate incubated for 30 mins by HTRF assay
Sequence of Epidermal growth factor receptor (P00533 whole entry): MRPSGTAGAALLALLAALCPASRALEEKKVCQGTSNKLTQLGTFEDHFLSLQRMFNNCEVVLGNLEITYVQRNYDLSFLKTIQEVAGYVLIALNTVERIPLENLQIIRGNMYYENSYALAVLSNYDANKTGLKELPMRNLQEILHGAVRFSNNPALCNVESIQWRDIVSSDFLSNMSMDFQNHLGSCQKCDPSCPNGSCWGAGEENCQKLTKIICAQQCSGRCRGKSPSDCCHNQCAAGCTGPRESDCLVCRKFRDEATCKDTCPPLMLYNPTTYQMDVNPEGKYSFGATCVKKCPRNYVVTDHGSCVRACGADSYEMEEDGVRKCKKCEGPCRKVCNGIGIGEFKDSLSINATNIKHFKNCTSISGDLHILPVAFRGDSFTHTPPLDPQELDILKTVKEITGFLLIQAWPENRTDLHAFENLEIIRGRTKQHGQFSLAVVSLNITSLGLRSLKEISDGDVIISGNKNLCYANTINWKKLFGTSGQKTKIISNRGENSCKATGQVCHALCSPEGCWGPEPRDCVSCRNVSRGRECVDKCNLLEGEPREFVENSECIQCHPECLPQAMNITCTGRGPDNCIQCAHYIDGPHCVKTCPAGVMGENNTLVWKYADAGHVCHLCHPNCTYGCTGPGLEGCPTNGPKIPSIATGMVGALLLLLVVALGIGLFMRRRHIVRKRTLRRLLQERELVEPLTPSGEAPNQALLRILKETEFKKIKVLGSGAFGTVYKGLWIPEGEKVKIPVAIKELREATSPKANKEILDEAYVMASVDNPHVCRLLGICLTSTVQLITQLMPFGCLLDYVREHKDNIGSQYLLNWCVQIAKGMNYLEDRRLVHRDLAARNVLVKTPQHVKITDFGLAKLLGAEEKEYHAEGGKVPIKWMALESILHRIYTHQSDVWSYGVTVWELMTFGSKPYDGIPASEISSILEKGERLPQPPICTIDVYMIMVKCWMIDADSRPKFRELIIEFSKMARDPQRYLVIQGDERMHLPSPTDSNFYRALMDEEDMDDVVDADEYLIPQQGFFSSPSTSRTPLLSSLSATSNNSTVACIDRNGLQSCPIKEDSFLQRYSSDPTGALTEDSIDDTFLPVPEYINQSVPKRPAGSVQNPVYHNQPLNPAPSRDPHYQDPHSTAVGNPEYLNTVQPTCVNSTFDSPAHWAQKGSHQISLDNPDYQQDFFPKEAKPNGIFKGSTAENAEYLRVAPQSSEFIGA

MCF7 [8] = assay: Antiproliferative activity against human MCF7 cells assessed as reduction in cell viability incubated for 48 hrs by MTT assay; format: functional, cell-based; settings: MCF7, 48 h
K562 = assay: Antiproliferative activity against human K562 cells assessed as reduction in cell viability after 72 hrs by MTT assay; format: functional, cell-based; settings: K562, 72 h
MCF7 [9] = assay: Growth inhibition of human MCF7 cells incubated fro 48 hrs by SRB assay; format: functional
PC-3 [10] = assay: Growth inhibition of human PC-3 cells measured for 48 hrs by SRB assay; format: functional
Heat shock protein HSP90 = Heat shock protein HSP90 (Homo sapiens, UniProt P07900+P08238); assay: Inhibition of HSP90 (unknown origin) ATPase activity; format: protein assay
MDA-MB-231 [11] = assay: Anticancer activity against human MDA-MB-231 cells assessed as reduction in cell viability measured for 48 hrs by MTT assay; format: functional, cell-based; settings: MDA-MB-231, 48 h
MDA-MB-231 [12] = assay: Growth inhibition of human MDA-MB-231 cells; format: functional
DU-145 = assay: Antiproliferative activity against human DU-145 cells assessed as reduction in cell viability by MTT assay; format: functional, cell-based
Huh-7 = assay: Antiproliferative activity against human Huh-7 cells assessed as reduction in cell growth; format: functional, cell-based

SMILES: CC(=O)c1c(O)c(C)c(O)c2c1OC1=Cc3onc(C)c3C(=O)[C@@]12C
- Activity (MCF7 [2]): 80%

SMILES: Cc1noc(C)c1-c1cc(Cc2n[nH]c(=O)c3ccccc23)cc(NC(=O)c2ccccc2C(F)(F)F)c1
- LD50 [3]: 500 mg/kg

SMILES: CCCCCCCCCCc1cc(CCC(N)(CO)CO)on1
- IC50 [4]: 7500 nM

SMILES: c1cnoc1 [ISOXAZOLE]
- IC50 [4]: 10000 nM

SMILES: Cc1onc([C@@H]2CN(C)C3(C(=O)c4ccccc4C3=O)[C@@]23C(=O)N(C)c2cc(Br)ccc23)c1[N+](=O)[O-]
- IC50 (K562): 20300 nM

SMILES: COc1cccc2c1C(=O)c1c(O)c3c(c(O)c1C2=O)C[C@@](O)(C(=O)CO)C[C@@H]3O[C@H]1C[C@H](N)[C@H](O)[C@H](C)O1 [DOXORUBICIN HYDROCHLORIDE]
- GI50 (MCF7 [9]): 1000 nM
- GI50 (PC-3 [10]): 1000 nM

SMILES: COc1ccc(/C=C/C(=O)c2ccno2)c(F)c1OC
- IC50 (DU-145): 5 µg/mL (≈ 18 µM)

SMILES: Cc1cc(C[C@@H]2C[C@H]3C(=O)N(C)C4(C[C@H](C)CC[C@H]4C(C)C)N3O2)c(O)c(-n2nc3ccccc3n2)c1 (stereo partly drawn)
- LD50 [3]: 1000 mg/kg

Continued, in another order:

- IC50 (HepG2): 770 nM
SMILES: Cc1ccccc1COc1ccc(-c2noc(C)c2-c2ccc(Cl)cc2)cc1

- IC50 (PC-3 [1]): 10 nM
SMILES: COc1ccc(-c2nnc(-c3cncc(-c4cc(-c5nccs5)on4)c3)o2)cc1

- IC50 (PC-3 [1]): 10 nM
SMILES: COc1cc(-c2nnc(-c3cncc(-c4cc(-c5nccs5)on4)c3)o2)cc(OC)c1OC

- IC50 (PC-3 [1]): 10 nM
SMILES: c1cc(-c2nnc(-c3cncc(-c4cc(-c5nccs5)on4)c3)o2)ccn1

- IC50 (PC-3 [1]): 10 nM
SMILES: c1csc(-c2cc(-c3cncc(-c4nnc(-c5nccs5)o4)c3)no2)n1

- IC50 (MCF7 [5]): 2630 nM
- IC50 (PC-3 [6]): 2630 nM
SMILES: COc1ccc(-c2noc(-c3cccs3)c2C(F)(F)F)cc1OC
- IC50 (4T1): 2630 nM

- IC50 [7]: 200 nM
- IC50 (MCF7 [8]): 2160 nM
SMILES: COc1c(Cl)cc(-c2noc(-c3cn(Cc4cc(-c5cc(Cl)cc(Cl)c5)no4)c4ccccc34)n2)cc1Cl

- IC50 (Heat shock protein HSP90): 14000 nM
SMILES: COc1ccc(-c2noc(NC(=O)c3ccc(F)c(F)c3)c2C#N)c(OC)c1

- IC50 (MDA-MB-231 [11]): 100 nM
- GI50 (MDA-MB-231 [12]): 25000 nM
SMILES: CCc1cc(-c2oncc2-c2ccc(OC)cc2)c(O)cc1OC

- IC50 (Huh-7): 700 nM
SMILES: COc1cc(NC(=O)c2cc(-c3c[nH]c4ccccc34)no2)cc(OC)c1OC
